Laboratory results reported in patent US4656288A, “Antibiotics, their production and use” (Takeda Chemical Industries, Ltd., priority 1984, dated 1987).
≈ marks a conversion by molar mass, not a printed value. Counter-ions that a name gives are not always drawn.

Key:
Solubility = format: physicochemical
Penicillinase = molecular target: T1, Penicillinase (Bacillus cereus, UniProt P10424); assay: Stability against β-lactamase (penicillinase), test microorganism Escherichia coli PG 8; format: biochemical; settings: Penicillinase derived from Bacillus cereus, -- = No inhibition zone indicated
T1 construct: purchased Calbio Chemical Co. of U.S.A
T1 sequence (P10424 44-306): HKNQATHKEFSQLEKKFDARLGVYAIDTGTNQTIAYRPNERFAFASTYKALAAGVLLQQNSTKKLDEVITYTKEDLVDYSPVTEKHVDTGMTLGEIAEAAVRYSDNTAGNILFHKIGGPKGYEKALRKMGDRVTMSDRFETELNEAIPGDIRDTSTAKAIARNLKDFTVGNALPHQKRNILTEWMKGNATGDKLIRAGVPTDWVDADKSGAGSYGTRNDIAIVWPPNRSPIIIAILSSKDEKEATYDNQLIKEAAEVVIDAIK
From the text: *^1 Derived from Bacillus cereus, produced by Calbio Chemical Co. of […]

Escherichia coli PG 8 = assay: Inhibition zone against test microorganism without addition of β-lactamase; format: cell-based; settings: test microorganism Escherichia coli PG 8; no β-lactamase added
[1] = tested on: Staphylococcus aureus 308A-1; assay: Therapeutic effect in the experimental mouse infection; format: in vivo; settings: 308A1, sc, Staphylococcus aureus 308A-1, route of administration Subcutaneous
Acute toxicity = format: in vivo; settings: administered subcutaneously at a dose of 400 mg/kf
[2] = tested on: Proteus vulgaris IFO 3988; assay: Antimicrobial spectrum, minimal inhibitory concentration; format: cell-based; settings: IFO3988, Bacto Antibiotic Medium 3 / yeast extract / agar medium, about 10^6 colony forming units/ml
Method: (§1) (Note 1): As the culture medium, there was used a medium consisting of
(§2) 17.5 g of Bacto Antibiotic Medium 3 (produced by Difco Laboratories of
(§3) U.S.A.), 5.0 g of Bacto Yeast extract (produced by Difco Laboratories of
(§4) U.S.A.), […] of Bacto Agar (produced by Difco Laboratories of U.S.A.)
(§5) and 1000 ml of distilled water (without adjustment of pH), while as the
(§6) bacterial inoculation solution, there was used about 10^6 colony
(§7) 17.5 g of Bacto Antibiotic Medium 3 (produced by Difco Laboratories,
(§8) U.S.A.), […] of Bacto Yeast extract (produced by Difco Laboratories,
(§9) U.S.A.), 20 g of Bacto Agar (produced by Difco Laboratories, U.S.A.) and
(§10) 1000 ml of distilled water (without adjustment of pH), while as the
(§11) bacterial inoculation solution, there was employed about 10^6 colony

[3] = tested on: Pseudomonas aeruginosa IFO 3080; assay: as above; format: cell-based; settings: IFO3080, Bacto Antibiotic Medium 3 / yeast extract / agar medium, about 10^6 colony forming units/ml
Method: as §1, §2, §3, §4, §5, §6, §7, §8, §9, §10, §11

[4] = tested on: Proteus mirabilis ATCC 21100; assay: as above; format: cell-based; settings: ATCC21100, Bacto Antibiotic Medium 3 / yeast extract / agar medium, about 10^6 colony forming units/ml
Method: as §1, §2, §3, §4, §5, §6, §7, §8, §9, §10, §11

[5] = tested on: Citrobacter freundii IFO 12681; assay: as above; format: cell-based; settings: IFO12681, Bacto Antibiotic Medium 3 / yeast extract / agar medium, about 10^6 colony forming units/ml
Method: as §1, §2, §3, §4, §5, §6, §7, §8, §9, §10, §11

[6] = tested on: Klebsiella pneumoniae IFO 3317; assay: as above; format: cell-based; settings: IFO3317, Bacto Antibiotic Medium 3 / yeast extract / agar medium, about 10^6 colony forming units/ml
Method: as §1, §2, §3, §4, §5, §6, §7, §8, §9, §10, §11

[7] = tested on: Acinetobacter calcoaceticus IFO 13006; assay: as above; format: cell-based; settings: IFO13006, Bacto Antibiotic Medium 3 / yeast extract / agar medium, about 10^6 colony forming units/ml
Method: as §1, §2, §3, §4, §5, §6, §7, §8, §9, §10, §11

[8] = tested on: Serratia marcescens IFO 12648; assay: as above; format: cell-based; settings: IFO12648, Bacto Antibiotic Medium 3 / yeast extract / agar medium, about 10^6 colony forming units/ml
Method: as §1, §2, §3, §4, §5, §6, §7, §8, §9, §10, §11

[9] = tested on: Salmonella typhimurium IFO 12529; assay: as above; format: cell-based; settings: Salmonella enterica, Bacto Antibiotic Medium 3 / yeast extract / agar medium, about 10^6 colony forming units/ml
Method: as §1, §2, §3, §4, §5, §6, §7, §8, §9, §10, §11

[10] = tested on: Micrococcus luteus IFO 12708; assay: as above; format: cell-based; settings: IFO12708, Bacto Antibiotic Medium 3 / yeast extract / agar medium, about 10^6 colony forming units/ml
Method: as §1, §2, §3, §4, §5, §6, §7, §8, §9, §10, §11

[11] = tested on: Staphylococcus aureus FDA 209P; assay: as above; format: cell-based; settings: FDA209P, Bacto Antibiotic Medium 3 / yeast extract / agar medium, about 10^6 colony forming units/ml
Method: as §1, §2, §3, §4, §5, §6, §7, §8, §9, §10, §11

[12] = tested on: Escherichia coli NIHJ JC 2; assay: as above; format: cell-based; settings: NIHJJC2, Bacto Antibiotic Medium 3 / yeast extract / agar medium, about 10^6 colony forming units/ml
Method: as §1, §2, §3, §4, §5, §6, §7, §8, §9, §10, §11

Bacillus cereus FDA 5 = assay: as above; format: cell-based; settings: FDA5, Bacto Antibiotic Medium 3 / yeast extract / agar medium, about 10^6 colony forming units/ml
Method: as §1, §2, §3, §4, §5, §6, §7, §8, §9, §10, §11

[13] = tested on: Alcaligenes faecalis IFO 13111; assay: as above; format: cell-based; settings: IFO13111, Bacto Antibiotic Medium 3 / yeast extract / agar medium, about 10^6 colony forming units/ml
Method: as §1, §2, §3, §4, §5, §6, §7, §8, §9, §10, §11

[14] = tested on: Proteus morganii IFO 3168; assay: as above; format: cell-based; settings: Morganella morganii, IFO3168, Bacto Antibiotic Medium 3 / yeast extract / agar medium, about 10^6 colony forming units/ml
Method: as §1, §2, §3, §4, §5, §6, §7, §8, §9, §10, §11

[15] = tested on: Bacillus subtilis NIHJ PCI 219; assay: as above; format: cell-based; settings: Bacto Antibiotic Medium 3 / yeast extract / agar medium, about 10^6 colony forming units/ml
Method: as §1, §2, §3, §4, §5, §6, §7, §8, §9, §10, §11

[16] = Stability in an aqueous solution; format: physicochemical
Cephalosporinase = Cephalosporinase (Enterobacter cloacae, UniProt P05364); assay: Stability against β-lactamase (cephalosporinase), test microorganism Escherichia coli PG 8; format: biochemical; settings: Cephalosporinase derived from Enterobacter cloacae, -- = No inhibition zone indicated
Chain of Cephalosporinase (P05364 21-381): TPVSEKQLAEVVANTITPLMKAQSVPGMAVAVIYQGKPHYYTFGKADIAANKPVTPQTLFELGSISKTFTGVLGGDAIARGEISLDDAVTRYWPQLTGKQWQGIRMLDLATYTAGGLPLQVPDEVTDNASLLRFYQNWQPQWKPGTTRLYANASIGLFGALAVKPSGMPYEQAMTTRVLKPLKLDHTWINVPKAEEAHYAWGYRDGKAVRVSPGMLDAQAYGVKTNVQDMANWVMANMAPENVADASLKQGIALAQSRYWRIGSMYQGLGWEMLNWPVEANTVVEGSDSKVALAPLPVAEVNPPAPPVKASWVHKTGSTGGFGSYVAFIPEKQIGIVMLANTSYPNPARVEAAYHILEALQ
From the text: *^2 Derived from Enterobacter cloacae.
*^3 No inhibition zone indicated.

[17] = Interconversion of HPLC peaks A and B on standing in buffers; format: physicochemical; settings: buffers of pH 3, 5 and 7 at room temperature
From the text: TAN-588 as obtained in this manner has two peaks on the reverse-phase HPLC. These peaks are temporarily referred to as A and B, respectively, whereby the phenomena to be described in the following are observed. […] Therefore, it is thought impossible to separate TAN-588 itself into A and B by means of the presently known separation techniques. However, the conversion of TAN-588 into the p-nitrobenzyl ester or benzhydryl derivative makes it possible for such a compound to be separated into the A type and B type of the compound, respectively.

For `N[C@H]1CON([C@]2(C(=O)O)CCC(=O)O2)C1=O` [N-deacetyl TAN-588 (A type compound)], which Solubility in chloroform (Solubility) is on record?
The Solubility in chloroform was “Sparingly soluble”.

What about the “Solubility in diethyl ether” value (Solubility) of the same molecule?
The value was “Sparingly soluble”.

And the Solubility in dimethylsulfoxide (Solubility)?
Its Solubility in dimethylsulfoxide is “Sparingly soluble”.

What about the “Solubility in ethyl acetate” value (Solubility) of the same molecule?
The value was “Sparingly soluble”.

And the Solubility in water (Solubility)?
The Solubility in water was “Soluble”.

What does the source list for `CO[C@@]1(NC(=O)CCC[C@@H](N)C(=O)O)C(=O)N2C(C(=O)O)=C(COC(N)=O)CS[C@@H]21` [CMC, reference compound]?
inhibition zone, β-Lactamase: Penicillinase (Penicillinase): 34; inhibition zone, β-Lactamase: Without addition (Escherichia coli PG 8): 34

For `CC1(C)S[C@@H]2[C@H](NC(=O)Cc3ccccc3)C(=O)N2[C@H]1C(=O)O` [PCG], which “inhibition zone, β-Lactamase: Without addition” value (Escherichia coli PG 8) is on record?
The value was 22.

For `CC(=O)N[C@H]1CON(C2(C(=O)O)CCC(=O)O2)C1=O` (stereo partly shown) [TAN-588 sodium salt], which ED50 [1] is on record?
The ED50 was 25 mg/kg.

What about the Solubility in chloroform (Solubility) of the same molecule?
The Solubility in chloroform was “Sparingly soluble”.

And the “Solubility in diethyl ether” value (Solubility)?
The value was “Sparingly soluble”.

And the Solubility in dimethylsulfoxide (Solubility)?
Its Solubility in dimethylsulfoxide is “Soluble”.

What about the “Solubility in ethyl acetate” value (Solubility) of the same molecule?
Its value is “Sparingly soluble”.

And the Solubility in water (Solubility)?
Its Solubility in water is “Soluble”.

What about the acute toxicity (Acute toxicity) of the same molecule?
The acute toxicity was “no acute toxicity”.

What about the MIC [2] of the same molecule?
The MIC was 25 µg/mL.

What about the MIC [3] of the same molecule?
The MIC was > 100 µg/mL.

And the MIC [4]?
Its MIC is 25 µg/mL.

What about the MIC [5] of the same molecule?
Its MIC is 100 µg/mL.

What about the MIC [6] of the same molecule?
Its MIC is 100 µg/mL.

And the MIC [7]?
The MIC was 25 µg/mL.

What about the MIC [8] of the same molecule?
The MIC was 50 µg/mL.

What about the MIC [9] of the same molecule?
Its MIC is 50 µg/mL.

And the MIC [10]?
The MIC was 0.39 µg/mL.

What about the MIC [11] of the same molecule?
The MIC was 3.13 µg/mL.

What about the MIC [12] of the same molecule?
Its MIC is 50 µg/mL.

And the MIC (Bacillus cereus FDA 5)?
Its MIC is 12.5 µg/mL.

And the MIC [13]?
The MIC was 50 µg/mL.

What about the MIC [14] of the same molecule?
The MIC was 100 µg/mL.

And the MIC [15]?
Its MIC is 3.13 µg/mL.

And the “Stability in an aqueous solution” value ([16]; pH 3 and 7)?
Its value is “slightly stable”.

And the “Stability in an aqueous solution” value ([16]; pH 5)?
Its value is “Stable”.

And the “Stability in an aqueous solution” value ([16]; pH 9)?
Its value is “unstable”.

For `N[C@H]1CON([C@@]2(C(=O)O)CCC(=O)O2)C1=O` [N-deacetyl TAN-588 (B type compound)], which Solubility in chloroform (Solubility) is on record?
Its Solubility in chloroform is “Sparingly soluble”.

What about the “Solubility in diethyl ether” value (Solubility) of the same molecule?
The value was “Sparingly soluble”.

What about the Solubility in dimethylsulfoxide (Solubility) of the same molecule?
Its Solubility in dimethylsulfoxide is “Sparingly soluble”.

And the “Solubility in ethyl acetate” value (Solubility)?
The value was “Sparingly soluble”.

What about the Solubility in water (Solubility) of the same molecule?
The Solubility in water was “Soluble”.

What does the source list for `N[C@H]1CON(C2(C(=O)O)CCC(=O)O2)C1=O` (stereo partly shown) [N-deacetyl TAN-588]?
inhibition zone, β-Lactamase: Cephalosporinase (Cephalosporinase): 21.5; Solubility in diethyl ether (Solubility): Sparingly soluble; Solubility in dimethylsulfoxide (Solubility): Sparingly soluble; Solubility in ethyl acetate (Solubility): Sparingly soluble; Solubility in water (Solubility): Soluble; MIC [2]: 100 µg/mL (≈ 434 µM); MIC [3]: 50 µg/mL (≈ 217 µM); MIC [4]: 100 µg/mL (≈ 434 µM); MIC [5]: 50 µg/mL (≈ 217 µM); MIC [6]: 100 µg/mL (≈ 434 µM); MIC [7]: 50 µg/mL (≈ 217 µM); MIC [8]: 25 µg/mL (≈ 109 µM); MIC [9]: 50 µg/mL (≈ 217 µM); MIC [10]: 6.25 µg/mL (≈ 27.2 µM); MIC [11]: 50 µg/mL (≈ 217 µM); MIC [12]: 25 µg/mL (≈ 109 µM); MIC (Bacillus cereus FDA 5): 50 µg/mL (≈ 217 µM); MIC [13]: 100 µg/mL (≈ 434 µM); MIC [14]: > 100 µg/mL; MIC [15]: 12.5 µg/mL (≈ 54.3 µM); inhibition zone, β-Lactamase: Penicillinase (Penicillinase): 24.5; inhibition zone, β-Lactamase: Without addition (Escherichia coli PG 8): 22.5

For `CC(=O)N[C@H]1CON(C2(C(=O)O)CCC(=O)O2)C1=O` (stereo partly shown) [TAN-588], which “interconversion of isolated peaks A and B” value [17] is on record?
The value was “A turns into B, with B turning into A, about one hour later at any pH values”.
